Among the test systems are IGROV-1; CCRF-CEM; CAKI-1; A549; SK-MEL-5; NCI-H226; ACHN; HCC 2998; OVCAR-3; SN12C; NCI-H23; U-251; K562; RPMI-8226; Malme-3M; UACC-62; HOP-92; MDA-MB-231; MOLT-4.
Holding throughout (assay): NCI anticancer screen, dose series, 48 h

Consider twelve compounds from ChEMBL document CHEMBL1201862, “PubChem BioAssay data set” (2004).

Structures are written as SMILES.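 Values below derive from 48-hour exposures of cells grown in 96-well plates, with endpoints linearly interpolated between the two concentrations bracketing the appropriate inhibition level. GI50 = concentration required for 50% inhibition of growth.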 The source made the active and inactive calls. No stated cut-off is given here; in the data, active = GI50 up to about 1.1 µM and inactive = higher. A value given as a limit tells only on which side of the number the result lay.

Regarding `C1CSCCSCCCS[C@@H]2CCCCC2SC1` (some centres not stated), the GI50 was > 100 µM (inactive) in the assay with IGROV-1; 20.8 µM (inactive) in the assay on CCRF-CEM; > 100 µM (inactive) in the assay on CAKI-1; > 100 µM (inactive) in the assay with A549; > 100 µM (inactive) with SK-MEL-5; > 100 µM (inactive) in the assay on NCI-H226. Also, the GI50 is > 100 µM (inactive) in the assay with ACHN; > 100 µM (inactive) in the assay with HCC 2998; > 100 µM (inactive) in the assay on OVCAR-3; 72.4 µM (inactive) in the assay on SN12C; > 100 µM (inactive) in the assay on NCI-H23; > 100 µM (inactive) in the assay on U-251. Besides, the GI50 in the assay on K562 was 24.3 µM (inactive); in the assay with RPMI-8226, 21 µM (inactive); with Malme-3M, > 100 µM (inactive); with UACC-62, > 100 µM (inactive); in the assay with HOP-92, 65.2 µM (inactive).

Turning to `Cn1c(S)nnc1CNc1ccc(-c2nnc(S)n2C)cc1`, the GI50 in the assay with MDA-MB-231, with IGROV-1, with CCRF-CEM, in the assay with CAKI-1, with A549 and with SK-MEL-5 was > 100 µM (inactive) throughout. In addition, the GI50 in the assay on NCI-H226, with MOLT-4, with ACHN, in the assay on HCC 2998, in the assay with OVCAR-3 and with SN12C was > 100 µM (inactive) each time. In addition, the GI50 in the assay with NCI-H23, with U-251, with K562, in the assay with Malme-3M and with HOP-92 was > 100 µM (inactive) in each case.

For the compound `Oc1nc(S)nc2c1C(c1ccc(Cl)cc1)c1c(O)nc(S)nc1O2`, the GI50 in the assay with MDA-MB-231 is > 100 µM (inactive); in the assay with IGROV-1, > 100 µM (inactive); in the assay with CCRF-CEM, > 100 µM (inactive); in the assay with CAKI-1, 25.8 µM (inactive); with A549, > 100 µM (inactive); in the assay with SK-MEL-5, > 100 µM (inactive). In addition, the GI50 with NCI-H226, in the assay on MOLT-4, in the assay with ACHN, with OVCAR-3, in the assay with SN12C and in the assay with NCI-H23 was > 100 µM (inactive) throughout. The GI50 in the assay on U-251, in the assay with K562, in the assay with RPMI-8226, in the assay on Malme-3M, with UACC-62 and in the assay with HOP-92 was > 100 µM (inactive) in each case.

As to `COc1cc(NS(C)(=O)=O)ccc1NCc1c2ccccc2nc2ccccc12`, the GI50 in the assay with IGROV-1 is 29.4 µM (inactive); in the assay with CCRF-CEM, 4.18 µM (inactive); in the assay with CAKI-1, 21.7 µM (inactive); in the assay on A549, 67 µM (inactive); in the assay on NCI-H226 it was > 100 µM (inactive); in the assay on MOLT-4 it was 3.27 µM (inactive). The GI50 is 29.4 µM (inactive) in the assay on ACHN; 40.6 µM (inactive) in the assay with HCC 2998; 43.5 µM (inactive) with OVCAR-3; 28.3 µM (inactive) with SN12C; 31 µM (inactive) in the assay on NCI-H23; 76.6 µM (inactive) in the assay with U-251. The GI50 is 7.87 µM (inactive) in the assay with K562; 22.5 µM (inactive) in the assay with RPMI-8226; 31.5 µM (inactive) with Malme-3M; > 100 µM (inactive) in the assay with UACC-62; 17.3 µM (inactive) in the assay with HOP-92.

For `O=c1[nH]c2ccc(CC(=S)N3CCOCC3)cc2o1`, the GI50 with MDA-MB-231 is > 100 µM (inactive); with IGROV-1, > 100 µM (inactive); in the assay with CCRF-CEM, 89.9 µM (inactive); in the assay with CAKI-1, > 100 µM (inactive); in the assay on NCI-H226 it was > 100 µM (inactive); in the assay with MOLT-4, > 100 µM (inactive). Also, the GI50 in the assay on ACHN, in the assay on OVCAR-3, in the assay on NCI-H23, in the assay with U-251, with Malme-3M and in the assay on UACC-62 was > 100 µM (inactive) each time.

For the compound `O=C1O[C@@H](c2ccccc2)C[C@@H]1CN1CCOCC1`, the GI50 with IGROV-1 was > 100 µM (inactive); with CCRF-CEM, > 100 µM (inactive); in the assay on CAKI-1, 65.5 µM (inactive); in the assay on A549, > 100 µM (inactive); in the assay on SK-MEL-5, > 100 µM (inactive); with NCI-H226, > 100 µM (inactive). Also, the GI50 with MOLT-4 is > 100 µM (inactive); in the assay with ACHN it was > 100 µM (inactive); with HCC 2998 it was > 100 µM (inactive); with OVCAR-3, > 100 µM (inactive); in the assay with SN12C, > 100 µM (inactive); in the assay with NCI-H23 it was 26.3 µM (inactive). Besides, the GI50 in the assay with U-251 was > 100 µM (inactive); in the assay on K562 it was > 100 µM (inactive); in the assay on RPMI-8226, 59.4 µM (inactive); in the assay on Malme-3M, > 100 µM (inactive); in the assay with UACC-62 it was > 100 µM (inactive); in the assay on HOP-92, > 100 µM (inactive).

Consider `CCCN(CCCCC(NC(C)=O)C(=O)NCc1ccccc1)C(=O)NCCCl` (configuration not stated), for which the GI50 in the assay with CCRF-CEM, in the assay with CAKI-1, in the assay on A549, in the assay on SK-MEL-5, in the assay on NCI-H226 and in the assay with MOLT-4 was > 100 µM (inactive) throughout. The GI50 in the assay with ACHN, in the assay with HCC 2998, with OVCAR-3, in the assay with SN12C, with NCI-H23 and in the assay on U-251 was > 100 µM (inactive) each time. The GI50 in the assay on K562, in the assay on RPMI-8226, in the assay on Malme-3M, in the assay with UACC-62 and with HOP-92 was > 100 µM (inactive) each time.

Regarding `O=[N+]([O-])CCc1cccc([N+](=O)[O-])c1`, the GI50 with IGROV-1, in the assay on CCRF-CEM, in the assay with CAKI-1, in the assay with A549, in the assay with SK-MEL-5 and in the assay on NCI-H226 was > 100 µM (inactive) throughout. The GI50 in the assay on MOLT-4, in the assay on ACHN, in the assay on HCC 2998, in the assay with OVCAR-3, in the assay with SN12C and in the assay on NCI-H23 was > 100 µM (inactive) throughout. In addition, the GI50 in the assay with U-251, in the assay on K562, in the assay with RPMI-8226, with Malme-3M, with UACC-62 and in the assay with HOP-92 was > 100 µM (inactive) in each case.

As for `CCCC(=O)CC(C)C(=O)C(=O)NC12CC3CC(CC(C3)C1)C2` (configuration not stated), the GI50 with CCRF-CEM, with CAKI-1, with A549, in the assay on SK-MEL-5, in the assay with NCI-H226 and with MOLT-4 was > 100 µM (inactive) in each case. In addition, the GI50 with ACHN, in the assay with HCC 2998, in the assay on OVCAR-3, in the assay with SN12C, in the assay on NCI-H23 and with U-251 was > 100 µM (inactive) in each case. Moreover, the GI50 was > 100 µM (inactive) with K562, > 100 µM (inactive) in the assay with RPMI-8226, > 100 µM (inactive) in the assay with Malme-3M and 22.3 µM (inactive) in the assay with HOP-92.

Consider `Nc1c(-c2ccccc2-c2c(N)[n+]([O-])c3ccccc3[n+]2[O-])[n+]([O-])c2ccccc2[n+]1[O-]`, for which the GI50 was 2.49 µM (inactive) in the assay with CCRF-CEM; 33.5 µM (inactive) in the assay on CAKI-1; 11.4 µM (inactive) in the assay on A549; 10.7 µM (inactive) with SK-MEL-5; 19.5 µM (inactive) in the assay with NCI-H226; 2.1 µM (inactive) in the assay on MOLT-4. For the same compound, the GI50 in the assay with ACHN is 8.32 µM (inactive); with HCC 2998, 22 µM (inactive); in the assay on OVCAR-3 it was 7.45 µM (inactive); in the assay on SN12C, 6.17 µM (inactive); in the assay on NCI-H23 it was 15.6 µM (inactive); in the assay with U-251, 5.46 µM (inactive). Also, the GI50 was 5.74 µM (inactive) with K562; 4.73 µM (inactive) in the assay on RPMI-8226; 35 µM (inactive) in the assay on Malme-3M; 3.7 µM (inactive) in the assay on UACC-62; > 100 µM (inactive) in the assay on HOP-92.

For `CC1CCC2(C)C(CC=C(C=O)C2(O)C=O)C12CO2` (configuration not stated), the GI50 is 2.32 µM (inactive) in the assay on IGROV-1; 1.26 µM (inactive) in the assay on CCRF-CEM; 2.96 µM (inactive) in the assay with CAKI-1; 10.4 µM (inactive) in the assay with A549; 0.665 µM (active) in the assay with NCI-H226; 1.87 µM (inactive) in the assay on MOLT-4. In addition, the GI50 is 1.76 µM (inactive) in the assay with ACHN; 2.29 µM (inactive) in the assay with HCC 2998; 0.481 µM (active) in the assay with OVCAR-3; 2.6 µM (inactive) in the assay on SN12C; 2.25 µM (inactive) in the assay with NCI-H23; 2.81 µM (inactive) in the assay with U-251. Moreover, the GI50 was 1.7 µM (inactive) in the assay with K562; 2.15 µM (inactive) in the assay with RPMI-8226; 2.64 µM (inactive) in the assay on Malme-3M; 1.64 µM (inactive) in the assay on UACC-62; 2.01 µM (inactive) in the assay on HOP-92.

For `COc1ccc(C2=NOP(c3ccccc3)(c3ccccc3)(c3ccccc3)C2)cc1`, the GI50 in the assay on IGROV-1 was 3.35 µM (inactive); in the assay on CCRF-CEM, 7.98 µM (inactive); in the assay on CAKI-1 it was 25.1 µM (inactive); in the assay on A549, 22.5 µM (inactive); in the assay on SK-MEL-5, 13.3 µM (inactive); in the assay on NCI-H226, 25.9 µM (inactive). Further, the GI50 is 7.43 µM (inactive) with MOLT-4; 29.3 µM (inactive) in the assay with ACHN; 20.9 µM (inactive) with HCC 2998; 21.7 µM (inactive) with OVCAR-3; 29.6 µM (inactive) with SN12C; 19.1 µM (inactive) in the assay on NCI-H23. Also, the GI50 in the assay on U-251 was 23.5 µM (inactive); in the assay on K562, 4.25 µM (inactive); with RPMI-8226, 10.6 µM (inactive); in the assay on Malme-3M, 21.9 µM (inactive); with UACC-62, 13.8 µM (inactive); in the assay on HOP-92 it was 6.46 µM (inactive).
